Assay results from US9765069B2, “Antimicrobial compounds” (OXFORD UNIVERSITY INNOVATION LIMITED, priority 2012, dated 2017).
pIC50: −log10 of the molar value. Converted amounts (≈) assume the structure as drawn. Like-named read-outs stand apart in the source and are kept apart here.

Legend:
S1 = assay: MIC determination (bacteria), strain S1; format: cell-based, S. aureus; conditions: Table 2, 2-fold broth dilution; for MIC: Staphylococcus aureus
Method: (§1) MIC determination (bacteria); MICs were determined based on Clinical and Laboratory Standards Institute (CLSI) methodology (Methods for dilution antimicrobial susceptibility tests for bacteria that grow aerobically; Approved Standard—seventh edition. 2006, M7-A7, CLSI, Wayne Pa.) by a 2-fold broth dilution technique in Mueller Hinton (pH7.4 Biorad). For S. pneumoniae, the medium was supplemented with 2.5% laked horse blood. For H. influenzae, the medium was haemophilus test medium (H.T.M.). Overnight cultures were diluted to obtain the final inoculum of 10^5 cfu/well. Incubation was 37° C. overnight in ambient air. The MIC was defined as the lowest concentration which inhibited all visual growth and expressed in μg/ml. For each bacterial species, all of the molecules were tested in the same experiment in order to give a head-to-head comparison.

S26 = assay: MIC determination (bacteria), strain S26; format: cell-based, S. aureus; conditions: Table 2, 2-fold broth dilution; for MIC: Staphylococcus aureus
Method: as §1

S4 = assay: MIC determination (bacteria), strain S4; format: cell-based, S. aureus; conditions: Table 2, 2-fold broth dilution; for MIC: Staphylococcus aureus
Method: as §1

[1] = tested on: S2 (S. aureus 2, MRSA in vivo); assay: MIC determination (bacteria), strain S2; format: cell-based; conditions: Table 2, 2-fold broth dilution; for MIC: Staphylococcus aureus, MRSA
Method: as §1

E2 = assay: MIC determination (bacteria), strain E2; format: cell-based, enterococcus; conditions: Table 2, 2-fold broth dilution; for MIC: Enterococcus
Method: as §1

P1 = assay: MIC determination (bacteria), strain P1; format: cell-based, S. pneumoniae; conditions: Table 2, 2-fold broth dilution; for MIC: Streptococcus pneumoniae
Method: as §1

P9 = assay: MIC determination (bacteria), strain P9; format: cell-based, S. pneumoniae; conditions: Table 2, 2-fold broth dilution; for MIC: Streptococcus pneumoniae
Method: as §1

P9B = assay: MIC determination (bacteria), strain P9B; format: cell-based, S. pneumoniae; conditions: Table 2, 2-fold broth dilution; for MIC: Streptococcus pneumoniae
Method: as §1

H3 = assay: MIC determination (bacteria), strain H3; format: cell-based, H. influenzae; conditions: Table 2, haemophilus test medium; for MIC: Haemophilus influenzae
Method: as §1

H4 = assay: MIC determination (bacteria), strain H4; format: cell-based, H. influenzae; conditions: Table 2 and its footnote f, haemophilus test medium; for MIC: Haemophilus influenzae
Method: as §1

[2] = tested on: human embryonic kidney 293 cells; assay: in vitro toxicities against human embryonic kidney 293 cells; format: cell-based
Excerpt: (§2) These properties can be determined according to techniques that are well known in the art.

[3] = tested on: human peripheral blood cells; assay: in vitro toxicities human peripheral blood cells; format: cell-based
Excerpt: as §2

[4] = tested on: Hek293 / PMBC versus S. aureus 2, MRSA in vivo; assay: Selectivity index (LD50 Hek293/PMBC divided by MIC S. aureus 2); format: cell-based; conditions: lower LD50 of Hek293 and PMBC (converted to μg/mL) divided by MIC against S. aureus 2, MRSA in vivo
[5] = aqueous solubility at pH 7.4; format: physicochemical; conditions: aqueous solubility at pH 7.4 (water with 2% DMSO)
Excerpt: as §2

E1 = assay: MIC determination (bacteria), strain E1; format: cell-based, enterococcus; conditions: Table 2, 2-fold broth dilution
Method: as §1

E. Coli RNAP = E. Coli RNAP (Escherichia coli, UniProt P0A8T7+P0A8V2); assay: In vitro activity against E. Coli RNAP; format: biochemical
Excerpt: as §2

S. aureus membrane = assay: In vitro activity in depolarization of S. aureus membrane; format: cell-based; conditions: read-out: DEP (IC50)
Excerpt: as §2

[6] = tested on: mammalian_red blood cell membrane; assay: In vitro mammalian red blood cell membrane lysis activity; format: cell-based; conditions: Active or inactive at 100 μM
Excerpt: as §2

all strains = assay: MIC determination (bacteria), whole strain panel of Table 2; format: cell-based
Method: as §1

[7] = human embryonic kidney 293 cells
[8] = read-out: MIC against the other strains
[9] = all strains (S1, S26, S4, S2, E1, E2, P1, P9, P9B, H3, H4), read-out: MIC for all strains

E. Coli RNAP, sequence (P0A8V2 whole entry): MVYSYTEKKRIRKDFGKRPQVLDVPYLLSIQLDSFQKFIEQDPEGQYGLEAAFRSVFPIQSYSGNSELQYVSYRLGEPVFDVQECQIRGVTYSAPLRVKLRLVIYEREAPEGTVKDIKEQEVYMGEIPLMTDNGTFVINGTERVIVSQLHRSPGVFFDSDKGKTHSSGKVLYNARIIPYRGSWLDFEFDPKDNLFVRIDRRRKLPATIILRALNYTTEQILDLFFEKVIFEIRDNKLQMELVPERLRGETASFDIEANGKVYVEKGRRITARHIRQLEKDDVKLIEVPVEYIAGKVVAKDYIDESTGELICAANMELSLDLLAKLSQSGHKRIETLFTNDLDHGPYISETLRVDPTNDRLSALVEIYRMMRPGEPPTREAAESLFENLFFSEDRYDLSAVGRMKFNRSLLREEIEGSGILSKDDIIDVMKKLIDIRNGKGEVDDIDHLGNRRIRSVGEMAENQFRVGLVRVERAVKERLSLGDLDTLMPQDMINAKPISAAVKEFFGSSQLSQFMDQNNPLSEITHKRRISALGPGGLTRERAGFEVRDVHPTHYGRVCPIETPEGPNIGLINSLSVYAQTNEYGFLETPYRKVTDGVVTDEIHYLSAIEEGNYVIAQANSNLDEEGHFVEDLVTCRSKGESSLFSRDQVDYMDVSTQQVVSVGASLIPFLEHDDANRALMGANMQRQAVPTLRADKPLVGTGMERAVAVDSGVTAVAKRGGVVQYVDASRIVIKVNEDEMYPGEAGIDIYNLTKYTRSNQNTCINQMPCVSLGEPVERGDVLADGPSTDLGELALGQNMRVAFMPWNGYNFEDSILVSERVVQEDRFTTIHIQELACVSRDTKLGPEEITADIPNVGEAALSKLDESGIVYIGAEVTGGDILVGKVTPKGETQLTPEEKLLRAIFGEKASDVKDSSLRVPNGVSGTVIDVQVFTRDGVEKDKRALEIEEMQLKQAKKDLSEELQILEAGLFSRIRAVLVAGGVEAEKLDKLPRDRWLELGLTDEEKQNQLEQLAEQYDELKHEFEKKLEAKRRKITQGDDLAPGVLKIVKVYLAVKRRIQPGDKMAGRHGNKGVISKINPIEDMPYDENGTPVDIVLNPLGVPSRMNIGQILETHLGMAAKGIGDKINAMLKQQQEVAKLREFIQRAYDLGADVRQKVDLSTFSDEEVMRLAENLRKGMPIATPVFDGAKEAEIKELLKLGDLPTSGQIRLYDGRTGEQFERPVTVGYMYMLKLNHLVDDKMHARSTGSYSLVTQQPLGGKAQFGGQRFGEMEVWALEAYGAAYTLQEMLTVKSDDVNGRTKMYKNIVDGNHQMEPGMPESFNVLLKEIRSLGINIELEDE
E. Coli RNAP, sequence (P0A8T7 whole entry): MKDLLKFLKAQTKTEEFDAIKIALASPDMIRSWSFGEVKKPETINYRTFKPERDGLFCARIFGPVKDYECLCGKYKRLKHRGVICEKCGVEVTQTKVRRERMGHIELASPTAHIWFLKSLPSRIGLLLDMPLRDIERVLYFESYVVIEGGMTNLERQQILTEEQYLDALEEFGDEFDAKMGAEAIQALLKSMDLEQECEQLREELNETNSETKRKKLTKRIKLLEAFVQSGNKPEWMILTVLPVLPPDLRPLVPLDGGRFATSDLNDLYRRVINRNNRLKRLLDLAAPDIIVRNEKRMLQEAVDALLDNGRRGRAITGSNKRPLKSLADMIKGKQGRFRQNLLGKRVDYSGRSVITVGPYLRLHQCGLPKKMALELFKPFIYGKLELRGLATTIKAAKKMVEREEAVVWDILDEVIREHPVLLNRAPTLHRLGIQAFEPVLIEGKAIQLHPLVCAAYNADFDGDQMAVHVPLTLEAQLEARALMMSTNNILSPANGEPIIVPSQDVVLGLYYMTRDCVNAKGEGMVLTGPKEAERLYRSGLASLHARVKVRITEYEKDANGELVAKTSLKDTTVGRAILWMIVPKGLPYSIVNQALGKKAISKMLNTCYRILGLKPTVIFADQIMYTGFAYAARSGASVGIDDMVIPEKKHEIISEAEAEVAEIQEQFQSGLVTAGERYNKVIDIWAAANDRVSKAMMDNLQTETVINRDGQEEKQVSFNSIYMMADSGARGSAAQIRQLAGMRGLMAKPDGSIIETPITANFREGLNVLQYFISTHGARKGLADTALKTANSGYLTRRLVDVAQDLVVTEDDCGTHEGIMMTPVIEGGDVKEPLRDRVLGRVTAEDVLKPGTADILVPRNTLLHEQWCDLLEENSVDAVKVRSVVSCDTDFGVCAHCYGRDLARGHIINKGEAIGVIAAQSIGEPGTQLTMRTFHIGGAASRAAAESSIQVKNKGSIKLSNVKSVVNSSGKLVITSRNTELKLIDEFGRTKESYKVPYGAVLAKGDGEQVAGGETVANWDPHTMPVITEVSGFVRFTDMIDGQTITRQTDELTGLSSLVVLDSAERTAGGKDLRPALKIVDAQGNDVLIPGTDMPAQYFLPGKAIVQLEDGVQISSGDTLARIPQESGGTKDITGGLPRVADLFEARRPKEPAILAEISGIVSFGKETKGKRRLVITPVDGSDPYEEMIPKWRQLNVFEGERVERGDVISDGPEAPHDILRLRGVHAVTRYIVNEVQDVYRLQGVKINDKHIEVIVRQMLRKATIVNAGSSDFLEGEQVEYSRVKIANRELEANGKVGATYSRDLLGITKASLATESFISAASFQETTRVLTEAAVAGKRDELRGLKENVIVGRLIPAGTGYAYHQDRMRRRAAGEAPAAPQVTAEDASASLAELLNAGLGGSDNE
E. Coli RNAP, sequence (P0A7Z4 whole entry partner): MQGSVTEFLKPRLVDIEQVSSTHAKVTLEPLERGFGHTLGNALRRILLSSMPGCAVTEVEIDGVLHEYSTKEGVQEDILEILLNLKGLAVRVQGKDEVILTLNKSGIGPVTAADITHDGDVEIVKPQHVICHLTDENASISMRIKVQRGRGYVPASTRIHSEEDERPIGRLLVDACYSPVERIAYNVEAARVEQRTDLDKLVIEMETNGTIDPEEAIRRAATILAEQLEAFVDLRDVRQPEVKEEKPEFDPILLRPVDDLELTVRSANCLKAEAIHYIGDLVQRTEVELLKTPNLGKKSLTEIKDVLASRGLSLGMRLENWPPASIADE
E. Coli RNAP, sequence (P0A800 whole entry partner): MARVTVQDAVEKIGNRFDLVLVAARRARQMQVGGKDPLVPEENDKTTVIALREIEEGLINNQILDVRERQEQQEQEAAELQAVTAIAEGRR

| Compound | MIC (H4) | SOL [5] | MIC S1 (S1) | MIC S26 (S26) | MIC S4 (S4) | MIC S2 [1] | MIC E1 (E1) | MIC E2 (E2) | MIC P1 (P1) | MIC P9 (P9) | MIC P9B (P9B) | MIC H3 (H3) | MIC H4 (H4) | pIC50 (E. Coli RNAP) | pIC50 (S. aureus membrane) | Hek293 (LD50, μM) [2, 7] | PMBC (LD50, μM) ([3]; human peripheral blood cells) | RBC membrane lysis activity (active/inactive) [6] | also measured |
| --- | --- | --- | --- | --- | --- | --- | --- | --- | --- | --- | --- | --- | --- | --- | --- | --- | --- | --- | --- |
| Cc1cc(Cl)ccc1OCCC/C(O)=C1\C(=O)CCN(C(=O)c2ccccc2)C1=O [19d] | 8 µg/mL (≈ 18.7 µM) | >300 µM |  |  |  |  |  |  |  |  |  |  |  |  |  |  |  |  | MIC (S1): 2 µg/mL (≈ 4.67 µM); MIC (S26): 4 µg/mL (≈ 9.35 µM); MIC (S4): 4 µg/mL (≈ 9.35 µM); MIC [1]: 4 µg/mL (≈ 9.35 µM); MIC (E2): 4 µg/mL (≈ 9.35 µM); MIC (P1): 2 µg/mL (≈ 4.67 µM); MIC (P9): 1 µg/mL (≈ 2.34 µM); MIC (P9B): 4 µg/mL (≈ 9.35 µM); MIC (H3): 16 µg/mL (≈ 37.4 µM); Hek293 (LD50, μM) ([2]; human): 90.9 µM; PMBC (LD50, μM) ([3]; human): 90.9 µM; SI (Selectivity index) [4]: 9.7 |
| CCCCCCC(=O)N1CC(=O)C(=C(O)CC23CC4CC(CC(C4)C2)C3)C1=O [27i] |  | 67 to 200 µM | 0.25 µg/mL (≈ 0.645 µM) | 0.5 µg/mL (≈ 1.29 µM) | 0.25 µg/mL (≈ 0.645 µM) | 0.25 µg/mL (≈ 0.645 µM) | 0.12 µg/mL (≈ 0.31 µM) | 0.25 µg/mL (≈ 0.645 µM) | 0.12 µg/mL (≈ 0.31 µM) | 0.12 µg/mL (≈ 0.31 µM) | 1 µg/mL (≈ 2.58 µM) | 2 µg/mL (≈ 5.16 µM) | 1 µg/mL (≈ 2.58 µM) | 5.51 | < 4.00 | 10.1 µM | 30.3 µM |  | RBCL (IC50, μM) [6]: Active |
| CCCC(=O)N1CC(=O)C(=C(O)CC23CC4CC(C)(CC(C)(C4)C2)C3)C1=O [27k] |  | >300 µM | 2 µg/mL (≈ 5.35 µM) | 2 µg/mL (≈ 5.35 µM) | 2 µg/mL (≈ 5.35 µM) | 2 µg/mL (≈ 5.35 µM) | 0.5 µg/mL (≈ 1.34 µM) | 1 µg/mL (≈ 2.68 µM) | 1 µg/mL (≈ 2.68 µM) | 0.5 µg/mL (≈ 1.34 µM) | 1 µg/mL (≈ 2.68 µM) | 8 µg/mL (≈ 21.4 µM) | 4 µg/mL (≈ 10.7 µM) | 5.17 | < 4.00 | 30.3 µM | 90.9 µM | Active |  |
| CCC/C=C/C(=O)N1CC(=O)/C(=C(/O)CC2C[C@@H](C(C)=O)C2(C)C)C1=O (stereo partly drawn) [27q] | 32 µg/mL (≈ 88.5 µM) |  |  |  |  |  |  |  |  |  |  |  |  |  |  |  |  |  | MIC (all strains; [8]): > 32 µg/mL |
| CCCC(=O)N1CC(=O)/C(=C(/O)CCNS(=O)(=O)c2ccccc2)C1=O [28j] |  |  |  |  |  |  |  |  |  |  |  |  |  |  |  |  |  |  | MIC (all strains; [9]): > 32 µg/mL |
| CC12CC3CC(C)(C1)CC(C/C(O)=C1\C(=O)[C@@H]4CCCC(=O)N4C1=O)(C3)C2 [29a] | 16 µg/mL (≈ 43.1 µM) |  |  |  |  |  |  |  |  |  |  |  |  | < 4.00 |  |  |  |  | MIC (all strains; [8]): > 32 µg/mL |
| CCCCCCC/C=C/C(=O)N1C(=O)/C(=C(\O)C[C@@H]2OC(C)(C)OC2=O)C(=O)C1CC(C)C (stereo partly drawn) [30c] |  |  |  |  |  |  |  |  |  |  |  |  |  | 4.07 |  |  |  |  | MIC (all strains; [9]): > 32 µg/mL |
| CSCCC1C(=O)C(=C(O)CC23CC4CC(C)(CC(C)(C4)C2)C3)C(=O)N1C(C)=O (stereo not drawn) [31e] |  | >300 µM | 2 µg/mL (≈ 4.77 µM) | 1 µg/mL (≈ 2.38 µM) | 4 µg/mL (≈ 9.53 µM) | 4 µg/mL (≈ 9.53 µM) | 4 µg/mL (≈ 9.53 µM) | 4 µg/mL (≈ 9.53 µM) | 2 µg/mL (≈ 4.77 µM) | 2 µg/mL (≈ 4.77 µM) | 4 µg/mL (≈ 9.53 µM) | 32 µg/mL (≈ 76.3 µM) | 4 µg/mL (≈ 9.53 µM) | 4.96 | 4.04 | 30.3 µM | 90.9 µM | Active |  |
| CSCCC1C(=O)C(=C(O)CC23CC4CC(CC(C4)C2)C3)C(=O)N1C(=O)C1CCCCC1 (stereo not drawn) [31f] |  | >300 µM | 0.5 µg/mL (≈ 1.09 µM) | 1 µg/mL (≈ 2.18 µM) | 0.5 µg/mL (≈ 1.09 µM) | 2 µg/mL (≈ 4.35 µM) | 0.5 µg/mL (≈ 1.09 µM) | 1 µg/mL (≈ 2.18 µM) | 1 µg/mL (≈ 2.18 µM) | 0.5 µg/mL (≈ 1.09 µM) | 2 µg/mL (≈ 4.35 µM) | 32 µg/mL (≈ 69.6 µM) | 2 µg/mL (≈ 4.35 µM) | 4.40 | < 4.00 | 90.9 µM | >90.9 µM | Inactive^d |  |
| CSCCC1C(=O)/C(=C(/O)CC2CC3CCC2C3)C(=O)N1C(=O)CC(C)CC(C)(C)C (stereo not drawn) [31g] | 2 µg/mL (≈ 4.45 µM) | >300 µM |  |  |  |  |  |  |  |  |  |  |  | < 4.00 |  |  |  | Active | MIC (S1): 0.12 µg/mL (≈ 0.267 µM); MIC (S26): 0.5 µg/mL (≈ 1.11 µM); MIC (S4): 0.5 µg/mL (≈ 1.11 µM); MIC [1]: 0.5 µg/mL (≈ 1.11 µM); MIC (E2): 0.25 µg/mL (≈ 0.556 µM); MIC (P1): 0.5 µg/mL (≈ 1.11 µM); MIC (P9): 0.25 µg/mL (≈ 0.556 µM); MIC (P9B): 2 µg/mL (≈ 4.45 µM); MIC (H3): 32 µg/mL (≈ 71.2 µM); pIC50 (S. aureus membrane; Staphylococcus aureus): < 4.00; Hek293 (LD50, μM) ([2]; human): 10.1 µM; PMBC (LD50, μM) ([3]; human): 30.3 µM; SI (Selectivity index) [4]: <9.1 |
| CSCCC1C(=O)/C(=C(/O)C[C@@H]2OC(C)(C)OC2=O)C(=O)N1C(=O)CC(C)CC(C)(C)C (stereo partly drawn) [31h] |  |  |  |  |  |  |  |  |  |  |  |  |  |  |  |  |  |  | MIC (all strains; [9]): > 32 µg/mL |
| CSCCC1C(=O)/C(=C(/O)CCCOc2ccc(Cl)cc2C)C(=O)N1C(=O)CC(C)CC(C)(C)C (stereo not drawn) [31j] | 8 µg/mL (≈ 15.3 µM) | >300 µM |  |  |  |  |  |  |  |  |  |  |  | 4.04 |  |  |  | Active | MIC (S1): 0.5 µg/mL (≈ 0.954 µM); MIC (S26): 1 µg/mL (≈ 1.91 µM); MIC (S4): 1 µg/mL (≈ 1.91 µM); MIC [1]: 0.5 µg/mL (≈ 0.954 µM); MIC (E1; Enterococcus): 1 µg/mL (≈ 1.91 µM); MIC (E2): 0.25 µg/mL (≈ 0.477 µM); MIC (P1): 0.5 µg/mL (≈ 0.954 µM); MIC (P9): 0.25 µg/mL (≈ 0.477 µM); MIC (P9B): 8 µg/mL (≈ 15.3 µM); MIC (H3): > 64 µg/mL; pIC50 (S. aureus membrane; Staphylococcus aureus): < 4.00; Hek293 (LD50, μM) ([2]; human): 10.1 µM; PMBC (LD50, μM) ([3]; human): 30.3 µM; SI (Selectivity index) [4]: <11 |
